Laboratory results from US8455665B2, “3-phenoxymethylpyrrolidine compounds” (Theravance, Inc., priority 2009, dated 2013).
Marks after values point to notes of the source that are not given here.

Key:
SERT [1] = molecular target: T1, SERT (Homo sapiens, UniProt P31645); test: hSERT membrane radioligand binding assay (3H-citalopram); parameters: expressed in transfected cells; host or cells: HEK-293; details: hSERT membranes (HEK-293), 1.0 nM 3H-citalopram; for Ki: read-out: SERT pKi (converted)
Method: (§1) Membrane radioligand binding assays were used to measure inhibition of labeled ligand (^3H-citalopram or ^3H-nisoxetine or ^3H-WIN35428) binding to membranes prepared from cells expressing the respective human recombinant transporter (hSERT or hNET or hDAT) in order to determine the pKi values of test compounds at the transporters.
(§2) Recombinant human embryonic kidney (HEK-293) derived cell lines stably transfected with hSERT or hNET, respectively, were grown in DMEM medium supplemented with 10% dialyzed FBS (for hSERT) or FBS (for hNET), 100 μg/ml penicillin, 100 μg/ml streptomycin, 2 mM L-glutamine and 250 μg/ml of the aminoglycoside antibiotic G418, in a 5% CO2 humidified incubator at 37° C. When cultures reached 80% confluence, the cells were washed thoroughly in PBS (without Ca^2+ and Mg^2+) and lifted with 5 mM EDTA in PBS. Cells were pelleted by centrifugation, resuspended in lysis buffer (10 mM Tris-HCl, pH7.5 containing 1 mM EDTA), homogenized, pelleted by centrifugation, then resuspended in 50 mM Tris-HCl, pH 7.5 and 10% sucrose at 4° C. Protein concentration of the membrane suspension was determined using a Bio-Rad Bradford Protein Assay kit. Membranes were snap frozen and stored at −80° C. Chinese hamster ovary membranes expressing hDAT (CHO-DAT) were purchased from PerkinElmer and stored at −80° C.
(§3) Binding assays were performed in a 96-well assay plate in a total volume of 200 μl assay buffer (50 mM Tris-HCl, 120 mM NaCl, 5 mM KCl, pH 7.4) with 0.5, 1, and 3 μg membrane protein, for SERT, NET and DAT, respectively.
(§4) Stock solutions (10 mM in DMSO) of test compound were prepared and serial dilutions made using Dilution Buffer (50 mM Tris-HCl, 120 mM NaCl, 5 mM KCl, pH 7.4, 0.1% BSA, 400 μM ascorbic acid). Non-specific radioligand binding was determined in the presence of 1 μM duloxetine, 1 μM desipramine or 10 μM GBR12909 (each in Dilution Buffer) for the hSERT, hNET or hDAT assays, respectively.
(§5) Following a 60 minute incubation at 22° C. (or a period sufficient to reach equilibrium), the membranes were harvested by rapid filtration over a 96-well UniFilter GF/B plate, pretreated with 0.3% polyethyleneimine, and washed 6 times with […] (50 mM Tris-HCl, 0.9% NaCl, pH 7.5 at 4° C.). Plates were dried overnight at room temperature, approximately […] of MicroScint™-20 (Perkin Elmer) added and bound radioactivity quantitated via liquid scintillation spectroscopy. Inhibition curves and saturation isotherms were analyzed using GraphPad Prism Software package (GraphPad Software, Inc., San Diego, Calif.). IC50 values were generated from concentration response curves using the Sigmoidal Dose Response (variable slope) algorithm in Prism GraphPad. Kd and Bmax values for the radioligand were generated from saturation isotherms using the Saturation Binding Global Fit algorithm in Prism GraphPad. pKi (negative decadic logarithm of Ki) values for test compounds were calculated from the best-fit IC50 values, and the Kd value of the radioligand, using the Cheng-Prusoff equation (Cheng & Prusoff (1973) Biochem. Pharmacol. 22(23):3099-3108): Ki=IC50/(1+[L]/Kd), where [L]=concentration radioligand.
Target sequence in this assay (P31645 whole entry): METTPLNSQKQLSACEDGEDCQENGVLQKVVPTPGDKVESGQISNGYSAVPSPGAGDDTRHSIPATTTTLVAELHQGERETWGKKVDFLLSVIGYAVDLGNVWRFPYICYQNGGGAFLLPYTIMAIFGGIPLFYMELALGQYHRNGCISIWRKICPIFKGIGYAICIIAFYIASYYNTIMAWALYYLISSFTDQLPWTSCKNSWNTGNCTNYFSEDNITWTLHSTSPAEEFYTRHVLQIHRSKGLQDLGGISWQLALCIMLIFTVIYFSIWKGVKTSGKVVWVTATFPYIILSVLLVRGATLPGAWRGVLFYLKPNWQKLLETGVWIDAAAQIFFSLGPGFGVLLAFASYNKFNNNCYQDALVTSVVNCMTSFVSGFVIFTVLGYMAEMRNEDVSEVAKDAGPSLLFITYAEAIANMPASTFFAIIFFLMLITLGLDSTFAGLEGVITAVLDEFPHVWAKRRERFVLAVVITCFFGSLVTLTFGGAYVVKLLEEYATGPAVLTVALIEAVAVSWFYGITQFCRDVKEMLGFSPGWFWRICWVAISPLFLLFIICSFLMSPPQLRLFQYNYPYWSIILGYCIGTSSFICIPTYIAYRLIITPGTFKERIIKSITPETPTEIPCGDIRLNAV

NET [2] = molecular target: T2, NET (Homo sapiens, UniProt P23975); test: hNET membrane radioligand binding assay (3H-nisoxetine); parameters: expressed in transfected cells; host or cells: HEK-293; details: hNET membranes (HEK-293), 1.0 nM 3H-nisoxetine; read-out: NET pKi (converted)
Method: as §1, §2, §3, §4, §5

SERT [3] = molecular target: T1, SERT; test: fluorescence-based serotonin uptake assay (Tsuruda et al. 2010); type: cell-based; details: serotonin reuptake inhibition, fluorescence-based assay (data indicated by an asterisk); for IC50: read-out: SERT pIC50 (converted)
Target sequence in this assay (P31645 whole entry, species assumed): as the sequence (P31645 whole entry) above

NET [4] = molecular target: T2, NET; test: fluorescence-based norepinephrine uptake assay (Tsuruda et al. 2010); type: cell-based; details: norepinephrine reuptake inhibition, fluorescence-based assay (data indicated by an asterisk); read-out: NET pIC50 (converted)

T2 sequence (P23975 whole entry): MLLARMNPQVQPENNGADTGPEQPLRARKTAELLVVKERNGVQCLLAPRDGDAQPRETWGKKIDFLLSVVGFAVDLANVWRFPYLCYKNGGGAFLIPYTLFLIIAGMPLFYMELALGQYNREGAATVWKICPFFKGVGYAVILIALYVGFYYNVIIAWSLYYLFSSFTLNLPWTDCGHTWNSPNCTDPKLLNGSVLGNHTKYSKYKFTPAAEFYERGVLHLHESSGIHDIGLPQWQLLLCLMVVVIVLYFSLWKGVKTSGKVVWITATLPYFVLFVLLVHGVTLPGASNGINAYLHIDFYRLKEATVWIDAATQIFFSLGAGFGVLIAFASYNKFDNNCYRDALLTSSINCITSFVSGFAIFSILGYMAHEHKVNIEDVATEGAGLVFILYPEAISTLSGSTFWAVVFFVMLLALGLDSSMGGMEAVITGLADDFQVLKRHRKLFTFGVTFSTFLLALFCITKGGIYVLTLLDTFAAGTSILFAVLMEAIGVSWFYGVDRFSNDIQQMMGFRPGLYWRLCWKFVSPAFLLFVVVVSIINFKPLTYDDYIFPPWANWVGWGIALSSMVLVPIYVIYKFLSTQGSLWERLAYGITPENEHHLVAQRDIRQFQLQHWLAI

In the case of `CSCCC(Oc1cccc(Cl)c1Cl)C1CCNC1` (mixture of isomers) [Example 20, 3-[1-(2,3-Dichlorophenoxy)-3-methylsulfanylpropyl]pyrrolidine], the Ki (SERT [1]) is reported as at most 10 nM and the Ki (NET [2]) is reported as at most 10 nM.
Molecule `COCCC(Oc1ccc(Cl)cc1C)C1CCNC1` (single isomer, unassigned) [5 (1st peak)] has a Ki (SERT [1]) of at most 10 nM and a Ki (NET [2]) of at most 100 nM.
In the case of `COCC(Oc1ccccc1Cl)C1CCNC1` (single isomer, unassigned) [Example 4-1, 3-[1-(2-Chlorophenoxy)-2-methoxyethyl]pyrrolidine], the Ki (SERT [1]) is reported as at most 100 nM and the Ki (NET [2]) is reported as at most 100 nM.
For `COCC(Oc1ccccc1Cl)C1CCNC1` (single isomer, unassigned) [Example 4-2, 3-[1-(2-Chlorophenoxy)-2-methoxyethyl]pyrrolidine], the “SERT pKi” value (SERT [1]) was “≧7.0” and the Ki (NET [2]) was at most 10 nM.
Work on `COC[C@H](Oc1cccc(C(F)(F)F)c1)[C@H]1CCNC1` [Example 4-3, (S)-3-[(R)-2-Methoxy-1-(3-trifluoromethylphenoxy)ethyl]pyrrolidine] yielded a Ki (SERT [1]) of at most 100 nM and a Ki (NET [2]) of at most 100 nM.
For `COCC(Oc1ccc(Cl)cc1)C1CCNC1` (stereo not drawn) [Example 4-4, 3-[1-(4-Chlorophenoxy)-2-methoxyethyl]pyrrolidine], the Ki (SERT [1]) was at most 10 nM and the Ki (NET [2]) was at most 100 nM.
Molecule `COC[C@H](Oc1cccc(Cl)c1Cl)[C@@H]1CCNC1` [Example 4-8, (R)-3-[(R)-1-(2,3-Dichlorophenoxy)-2-methoxyethyl]pyrrolidine] has a Ki (SERT [1]) of at most 10 nM and a Ki (NET [2]) of at most 100 nM.
`COC[C@H](Oc1cccc(F)c1Cl)[C@H]1CCNC1` [Example 4-12, (S)-3-[(R)-1-(2-Chloro-3-fluorophenoxy)-2-methoxyethyl]pyrrolidine] gave a Ki (SERT [1]) of at most 100 nM and a Ki (NET [2]) of at most 10 nM.
`COC[C@H](Oc1cccc(Cl)c1C)[C@@H]1CCNC1` [Example 4-17, (R)-3-[(R)-1-(3-Chloro-2-methylphenoxy)-2-methoxyethyl]pyrrolidine] was tested, and the Ki (SERT [1]) was at most 10 nM and the Ki (NET [2]) was at most 100 nM.
`COC[C@@H](Oc1c(Cl)cccc1Cl)[C@H]1CCNC1` [Example 4-27, (S)-3-[(S)-1-(2,6-Dichlorophenoxy)-2-methoxyethyl]pyrrolidine] gave a Ki (SERT [1]) of at most 100 nM and a Ki (NET [2]) of at most 100 nM.
In the case of `COC[C@H](Oc1c(Cl)cccc1Cl)[C@H]1CCNC1` [Example 4-28, (S)-3-[(R)-1-(2,6-Dichlorophenoxy)-2-methoxyethyl]pyrrolidine], the Ki (SERT [1]) is reported as at most 100 nM and the Ki (NET [2]) is reported as at most 10 nM.
Molecule `COCC(Oc1cc(Cl)cc(Cl)c1)C1CCNC1` (stereo not drawn) [Example 4-29, 3-[1-(3,5-Dichlorophenoxy)-2-methoxyethyl]pyrrolidine] has a Ki (SERT [1]) of at most 10 nM and a Ki (NET [2]) of at most 100 nM.
`CC(C)OC[C@H](Oc1cccc(C(F)(F)F)c1)[C@@H]1CCNC1` [Example 9-2, (R)-3-[(R)-2-Isopropoxy-1-(3-trifluoromethylphenoxy)ethyl]pyrrolidine] gave an IC50 (SERT [3]) of at most 100 nM, an IC50 (NET [4]) of at most 1000 nM and a Ki (SERT [1]) of at most 100 nM. It also gave a Ki (NET [2]) of at most 10000 nM.
With `CC(C)OC[C@H](Oc1cccc(Cl)c1Cl)[C@@H]1CCNC1` [Example 9-6, (R)-3-[(R)-1-(2,3-Dichlorophenoxy)-2-isopropoxyethyl]pyrrolidine] the IC50 (SERT [3]) was at most 100 nM, the IC50 (NET [4]) was at most 100 nM and the Ki (SERT [1]) was at most 10 nM. It also gave a Ki (NET [2]) of at most 100 nM.
With `CC(C)OC[C@H](Oc1cccc(F)c1Cl)[C@@H]1CCNC1` [Example 9-10, (R)-3-[(R)-1-(2-Chloro-3-fluorophenoxy)-2-isopropoxyethyl]pyrrolidine] the IC50 (SERT [3]) was at most 100 nM, the IC50 (NET [4]) was at most 100 nM and the Ki (SERT [1]) was at most 100 nM. It also gave a Ki (NET [2]) of at most 100 nM.
In the case of `Cc1c(Cl)cccc1O[C@@H](COC(C)C)[C@@H]1CCNC1` [Example 9-25, (R)-3-[(R)-1-(3-Chloro-2-methylphenoxy)-2-isopropoxyethyl]pyrrolidine], the “SERT pIC50” value (SERT [3]) is reported as “≧8.0*” and the “SERT pKi” value (SERT [1]) is reported as “≧8.0”.
In the case of `Clc1ccccc1O[C@H](C1CCOCC1)[C@@H]1CCNC1` [Example 13-2, (R)-3-[(R)-(2-Chlorophenoxy)(tetrahydropyran-4-yl)methyl]pyrrolidine], the Ki (SERT [1]) is reported as at most 100 nM and the Ki (NET [2]) is reported as at most 10 nM.
Work on `Fc1cccc(O[C@@H](C2CCOCC2)[C@@H]2CCNC2)c1` [Example 13-5, (R)-3-[(S)-(3-Fluorophenoxy)(tetrahydropyran-4-yl)methyl]pyrrolidine] yielded a Ki (SERT [1]) of at most 100 nM and a Ki (NET [2]) of at most 100 nM.
`Fc1cccc(O[C@H](C2CCOCC2)[C@@H]2CCNC2)c1` [Example 13-6, (R)-3-[(R)-(3-Fluorophenoxy)(tetrahydropyran-4-yl)methyl]pyrrolidine] showed a Ki (SERT [1]) of at most 100 nM and a Ki (NET [2]) of at most 10 nM.
`FC(F)(F)c1cccc(O[C@H](C2CCOCC2)[C@@H]2CCNC2)c1` [Example 13-7, (R)-3-[(R)-(Tetrahydropyran-4-yl)(3-trifluoromethylphenoxy)methyl]pyrrolidine] showed a Ki (SERT [1]) of at most 100 nM and a Ki (NET [2]) of at most 100 nM.
Molecule `FC(F)(F)c1cccc(O[C@@H](C2CCOCC2)[C@H]2CCNC2)c1` [Example 13-8, (S)-3-[(S)-(Tetrahydropyran-4-yl)(3-trifluoromethylphenoxy)methyl]pyrrolidine] has a Ki (SERT [1]) of at most 100 nM and a Ki (NET [2]) of at most 100 nM.
For `Fc1ccc(O[C@H](C2CCOCC2)[C@@H]2CCNC2)cc1` [Example 13-10, (R)-3-[(R)-(4-Fluorophenoxy)(tetrahydropyran-4-yl)methyl]pyrrolidine], the Ki (SERT [1]) was at most 100 nM and the Ki (NET [2]) was at most 100 nM.
In the case of `FC(F)(F)c1c(Cl)cccc1OC(C1CCOCC1)C1CCNC1` [Example 13-18, (S)-3-[(S)-(3-Chloro-2-trifluoromethylphenoxy)(tetrahydropyran-4-yl)-methy]-pyrrolidine], the Ki (SERT [1]) is reported as at most 10 nM and the Ki (NET [2]) is reported as at most 100 nM.
`FC(F)(F)c1c(Cl)cccc1O[C@H](C1CCOCC1)[C@H]1CCNC1` [Example 13-19, (S)-3-[(R)-(3-Chloro-2-trifluoromethylphenoxy)(tetrahydropyran-4-yl)-methyl]-pyrrolidine] showed a Ki (SERT [1]) of at most 10 nM and a Ki (NET [2]) of at most 100 nM.
With `FC(F)(F)c1c(Cl)cccc1O[C@@H](C1CCOCC1)[C@@H]1CCNC1` [Example 13-21, (R)-3-[(S)-(3-Chloro-2-trifluoromethylphenoxy)(tetrahydropyran-4-yl)-methyl]-pyrrolidine] the Ki (SERT [1]) was at most 10 nM and the Ki (NET [2]) was at most 100 nM.
Molecule `FC(F)(F)c1cc(Cl)ccc1O[C@H](C1CCOCC1)[C@@H]1CCNC1` [Example 13-23, (R)-3-[(R)-(4-Chloro-2-trifluoromethylphenoxy)(tetrahydropyran-4-yl)methyl]pyrrolidine] has a Ki (SERT [1]) of at most 10 nM and a Ki (NET [2]) of at most 100 nM.
`Clc1cccc(Cl)c1O[C@H](C1CCOCC1)[C@H]1CCNC1` [Example 13-25, (S)-3-[(R)-(2,6-Dichlorophenoxy)(tetrahydropyran-4-yl)methyl]pyrrolidine] showed a Ki (SERT [1]) of at most 100 nM and a Ki (NET [2]) of at most 100 nM.
For `Clc1cccc(Cl)c1O[C@H](C1CCOCC1)[C@@H]1CCNC1` [Example 13-26, (R)-3-[(R)-(2,6-Dichlorophenoxy)(tetrahydropyran-4-yl)methyl]pyrrolidine], the Ki (SERT [1]) was at most 100 nM and the Ki (NET [2]) was at most 10 nM.
In the case of `Clc1cccc(Cl)c1O[C@@H](C1CCOCC1)[C@@H]1CCNC1` [Example 13-27, (R)-3-[(S)-(2,6-Dichlorophenoxy)(tetrahydropyran-4-yl)methyl]pyrrolidine], the Ki (SERT [1]) is reported as at most 100 nM and the Ki (NET [2]) is reported as at most 10 nM.
Work on `Clc1cc(Cl)cc(O[C@@H](C2CCOCC2)[C@H]2CCNC2)c1` [Example 13-28, (S)-3-[(S)-(3,5-Dichlorophenoxy)(tetrahydropyran-4-yl)methyl]pyrrolidine] yielded a Ki (SERT [1]) of at most 10 nM and a Ki (NET [2]) of at most 100 nM.
